Data set [1] relates to K. pneumoniae. In words: MIC, summary over K. pneumoniae strains. Particulars: Klebsiella pneumoniae, two strains; read-out: MICs against K. pneumoniae. It counts as cell-based. How it is done: MIC was determined using the broth microdilution method in accordance with Clinical and Laboratory Standards Institute guidelines. All compounds were dissolved in dimethyl sulfoxide (DMSO; final DMSO concentration of less than 0.5%) and sterile double-distilled water and then diluted with Mueller-Hinton broth (MHB). Each compound’s stock solution was serially twofold diluted, resulting in concentrations ranging from 0.39 to 100 μg/ml, and thereafter added to sterile 96-well plates. All bacterial cell suspensions were adjusted in MHB to attain a starting inoculum of 1 × 10^6 cells/ml. A total of 100 μl volume of the bacterial suspension was then added to each well. Following a 24-hour incubation at 37°C, the optical density at 600 nm (OD600) was confirmed by measuring absorbance at 600 nm with a BioTek microplate reader. […] All measurements were repeated three times with duplicates each time.

The target of data set [2] is T1, topoisomerase IV from E. coli (Escherichia coli, UniProt P0AFI2+P20083).
T1 construct: purchased ProFoldin (Worcester, MA)
Briefly: Topoisomerase IV decatenation inhibition assay. It counts as biochemical. As to conditions: 1× MIC. How it is done: E. coli topoisomerase enzymes (II and IV) were supplied by ProFoldin (Worcester, MA), and assays were performed according to the manufacturer’s instructions. Briefly, the DNA supercoiling assay was conducted in a volume of 40 μl containing 24 μl of H2O, 4 μl of 10× buffer, 4 μl of 10× relaxed DNA, 4 μl of 10× enzyme, and 4 μl of 10 mM adenosine triphosphate (ATP). Following a 60-min incubation at room temperature, 200 μl of H2O was added to each reaction mixture. Topoisomerase IV decatenation inhibition assay was conducted in a volume of 50 μl containing 38.5 μl of H2O, 5 μl of 10× buffer, 5 μl of 10× concatenated DNA, 0.5 μl of 100× enzyme, and 1 μl of 10 mM ATP. After 60 min of incubation at 37°C, 5 μl of 0.4 M EDTA was added to stop the reaction. […]
In the supercoiling inhibition assay, the fluorescence intensity was measured using freshly prepared 1× H19 dye, which was prepared by diluting 100× H19 dye with 10 mM tris-HCl and 10 mM NaCl (pH 7.0). […] In the decatenation inhibition assay, the change in fluorescence intensity was monitored using the 1× fluorescence dye after diluting the 20× dye with water. The reaction solution eluted from the column was mixed with 150 μl of 1× fluorescence dye. The fluorescence intensity for both assays was lastly detected at 535 nm using an excitation wavelength of 485 nm. […]

Data set [3] relates to MRSA N315. In words: MIC, broth microdilution. As to conditions: Staphylococcus aureus, 24-hour incubation, MHB, read-out: MIC90 MRSA N315. It counts as cell-based. In short, it runs like this:
(§1)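 Broth microdilution per CLSI in Mueller-Hinton broth, twofold dilutions from 0.39 to 100 μg/ml, DMSO below 0.5%. Inoculum 1 × 10^6 cells/ml. Growth read as OD600 after 24 h at 37°C; three repeats in duplicate.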

The test system of data set [4] is S. aureus ATCC 29213. In words: MIC, broth microdilution. It counts as cell-based. Particulars: Staphylococcus aureus, ATCC29213, 24 h, 24-hour incubation, MHB; read-out: MIC90 S. aureus ATCC 29213. In short, it runs like this:
as §1
For orientation: Broth dilution looks for growth in wells or tubes with falling amounts of substance.

In data set [5] the test system is A. baumannii R2889. Briefly: MIC, broth microdilution. Particulars: Acinetobacter baumannii, 24-hour incubation, MHB. It counts as cell-based. The gist of the method:
as §1

The subject of data set [6] is P. aeruginosa ATCC 9027. Briefly: MIC, broth microdilution. It counts as cell-based. As to conditions: Pseudomonas aeruginosa, ATCC9027; 24-hour incubation, MHB. The gist of the method: as §1
Data set [7] concerns K. pneumonia ATCC 10031. In words: MIC, broth microdilution. It counts as cell-based. As to conditions: Klebsiella pneumoniae, ATCC10031; 24-hour incubation, MHB. In short, it runs like this:
as §1

Data set [8] relates to MRSA NCTC 10442. Briefly: MIC, broth microdilution. It counts as cell-based. As to conditions: Staphylococcus aureus; 24-hour incubation, MHB; read-out: MIC90 MRSA NCTC 10442. The gist of the method: as §1
Data set [9] deals with K. pneumonia ATCC 14581. Briefly: MIC, broth microdilution. Particulars: Klebsiella pneumoniae, ATCC14581; 24-hour incubation, MHB. It counts as cell-based. In short, it runs like this:
as §1

Data set [10] deals with A. baumannii ATCC 17978. In words: MIC, broth microdilution. It counts as cell-based. As to conditions: Acinetobacter baumannii, ATCC17978; 24-hour incubation, MHB. In short, it runs like this:
as §1

For data set [11], the system named is S. aureus ATCC 29213. Briefly: Time-kill kinetic assay. It counts as cell-based, Staphylococcus aureus. Particulars: 10× MIC, 24 hours. On the procedure: The bacterial cultures were standardized to obtain an initial density that ranged from 10^5 to 10^6 cells/ml. The cultures were incubated in a shaking bath at 37°C. Viable counts were determined at 0-, 0.5-, 1.0-, 2.0-, 4.0-, 8.0-, and 24-hour intervals by spotting 10-μl aliquots of serially 10-fold diluted cultures onto Mueller-Hinton agar (MHA) plates. […] All measurements were repeated three times with duplicates each time.

Data set [12] relates to E. coli ATCC 25922. In words: DiSC3(5) membrane depolarization assay. It counts as cell-based, Escherichia coli. As to conditions: 1× to 8× MIC. How it is done: The DiSC3(5) assay was carried out to investigate the cytoplasmic membrane depolarization. Mid-log phase bacteria culture was centrifuged and resuspended in sterile Hepes buffer [5 mM (pH 7.4)] to adjust the concentration of bacterial cells to obtain OD600 of 0.1. The bacterial suspension was then incubated with 2 μM DiSC3(5) for 1 hour without being exposed to the light. The change in fluorescence intensity was monitored by a BioTek multidetector microplate reader with an excitation wavelength of 622 nm and an emission wavelength of 670 nm. […] All measurements were repeated three times with duplicates each time.

The nature of data set [13]: In vivo corneal toxicity, fluorescein staining. Also on record: species or system mice. Particulars: topical application to murine cornea. On the procedure: In addition, the in vivo toxicity assessment of compound XT17 toward murine cornea was conducted through local application using 1% fluorescein sodium solution to stain the cornea.
The nature of data set [14]: In vitro cytotoxicity (CC50). It counts as cell-based. Particulars: human, mouse, HepG2 cells and mouse fibroblast NCTC clone 929 cells; mammalian cells, CCK-8; read-out: concentration of cytotoxicity 50% (CC50). How it is done:
Cytotoxicity of the compound tested was assessed by CCK-8 assays as previously described ([71]). […] Following a 24-hour incubation, 10 μl of CCK-8 reagent was added to each well and incubated for 1 hour. The absorbance at 450 nm was measured by a microplate reader. All measurements were repeated three times with duplicates each time.

≈ marks a conversion by molar mass, not a printed value.

T1 sequence (P20083 whole entry): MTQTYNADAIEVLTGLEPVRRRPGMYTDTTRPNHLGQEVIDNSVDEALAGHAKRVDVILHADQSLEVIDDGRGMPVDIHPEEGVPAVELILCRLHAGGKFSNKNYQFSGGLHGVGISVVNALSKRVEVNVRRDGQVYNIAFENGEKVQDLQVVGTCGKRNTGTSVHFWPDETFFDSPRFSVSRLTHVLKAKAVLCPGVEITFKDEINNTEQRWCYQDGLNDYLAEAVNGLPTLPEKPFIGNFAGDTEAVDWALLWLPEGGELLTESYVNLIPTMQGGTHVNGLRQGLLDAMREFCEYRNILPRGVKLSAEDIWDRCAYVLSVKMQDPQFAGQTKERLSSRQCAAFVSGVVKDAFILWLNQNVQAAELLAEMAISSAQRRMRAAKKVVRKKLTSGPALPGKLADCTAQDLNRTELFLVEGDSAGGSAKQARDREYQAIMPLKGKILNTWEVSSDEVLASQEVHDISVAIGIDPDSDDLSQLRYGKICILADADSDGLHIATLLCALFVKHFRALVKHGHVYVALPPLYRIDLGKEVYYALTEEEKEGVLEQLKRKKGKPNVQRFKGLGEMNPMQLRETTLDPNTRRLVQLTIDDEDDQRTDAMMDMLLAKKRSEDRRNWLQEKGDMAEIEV
T1 sequence (P0AFI2 whole entry): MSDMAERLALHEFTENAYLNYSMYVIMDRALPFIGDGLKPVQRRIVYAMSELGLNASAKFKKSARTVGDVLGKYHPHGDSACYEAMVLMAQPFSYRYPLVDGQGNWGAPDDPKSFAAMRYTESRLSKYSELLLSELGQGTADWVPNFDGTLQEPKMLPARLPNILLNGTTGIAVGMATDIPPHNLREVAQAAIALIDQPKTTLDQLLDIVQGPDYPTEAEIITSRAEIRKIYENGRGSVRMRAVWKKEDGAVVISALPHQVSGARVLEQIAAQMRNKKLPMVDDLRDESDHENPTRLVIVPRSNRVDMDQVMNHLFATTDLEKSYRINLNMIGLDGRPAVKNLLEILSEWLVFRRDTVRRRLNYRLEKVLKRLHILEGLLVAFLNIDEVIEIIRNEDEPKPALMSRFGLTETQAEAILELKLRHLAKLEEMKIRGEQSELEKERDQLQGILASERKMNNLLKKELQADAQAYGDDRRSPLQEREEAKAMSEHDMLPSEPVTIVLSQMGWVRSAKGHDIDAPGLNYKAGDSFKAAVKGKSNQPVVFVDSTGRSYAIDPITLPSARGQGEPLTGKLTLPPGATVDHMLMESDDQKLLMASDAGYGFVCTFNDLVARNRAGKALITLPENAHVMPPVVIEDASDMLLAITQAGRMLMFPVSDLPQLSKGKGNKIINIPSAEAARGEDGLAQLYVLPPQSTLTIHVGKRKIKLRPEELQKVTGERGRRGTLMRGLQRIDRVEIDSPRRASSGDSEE

By MIC90 is commonly meant the lowest concentration that inhibits either 90% of growth or 90% of the strains tested, depending on the study. With `CC(C)=CCOc1cc(OCCCNC(=N)N)cc2oc3cc(OCCCNC(=N)N)ccc3c(=O)c12` [XT17], the MIC in data set [1] was 6.25 to 12.5 µg/mL (≈ 12.2 to 24.5 µM). The “Inhibition of topoisomerase IV (%)” value in data set [2] is 36.93%. Further, the MIC90 turned out to be 0.39 µg/mL (≈ 0.764 µM) in data set [3]; 0.39 µg/mL (≈ 0.764 µM) in data set [4]; 50 µg/mL (≈ 97.9 µM) in data set [5]; 3.12 µg/mL (≈ 6.12 µM) in [6]; 6.25 µg/mL (≈ 12.2 µM) in data set [7]; 0.39 µg/mL (≈ 0.764 µM) in data set [8]. In addition, the results for the MIC90 in [9] and in data set [10] were 12.5 µg/mL (≈ 24.5 µM) and 25 µg/mL (≈ 49 µM), respectively. Further, the “log decrease in bacterial load” value in data set [11] came to 5.16 log. In addition, the “DiSC3(5) fluorescence intensity (membrane depolarization)” value in data set [12] is reported as “no changes in fluorescence intensity”. Also, the “corneal damage (slit-lamp, fluorescein staining)” value in [13] is recorded as “no notable signs of corneal damage”. In addition, in [14], the CC50 at 24 h is greater than 50 µg/mL.

The record behind these values is paper PMC11881906, “Development of xanthone derivatives as effective broad-spectrum antimicrobials: Disrupting cell wall and inhibiting DNA synthesis” (Science Advances, 2025).
